Source: the supplement of paper PMC10307832

Key:
Experiment in all cases: relative viability (nuclei count vs DMSO), 5 days (fraction); higher = more cells survive
NCI-H727 = system: NCI-H727
Outline: (§1)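 The day after seeding in 1536-well plates, lung cancer cell lines were treated by pin tool with a single drug, or with a fixed anchor-drug dose together with five library-drug doses (not always all listed) in √10 steps. After 5 days, a combined fix-and-stain solution (final 0.05% Triton X-100, 1% formaldehyde, 1 ug/ml Hoechst) was added. Nuclei counted on 4× images gave relative viability as treated counts over vehicle counts, reported as the median of duplicate plates.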

HCC-827 = system: HCC-827
Outline: as §1

NCI-H2085 = system: NCI-H2085
Outline: as §1

HCC-366 = system: HCC-366
Outline: as §1

HCC-78 = system: HCC-78
Outline: as §1

SK-LU-1 = system: SK-LU-1
Outline: as §1

NCI-H1395 = system: NCI-H1395
Outline: as §1

EPLC-272H = system: EPLC-272H
Outline: as §1

NCI-H1975 = system: NCI-H1975
Outline: as §1

UMC-11 = system: UMC-11
Outline: as §1

HCC-15 = system: HCC-15
Outline: as §1

NCI-H1792 = system: NCI-H1792
Outline: as §1

NCI-H661 = system: NCI-H661
Outline: as §1

NCI-H2405 = system: NCI-H2405
Outline: as §1

NCI-H1944 = system: NCI-H1944
Outline: as §1

COR-L23 = system: COR-L23
Outline: as §1

HARA = system: HARA
Outline: as §1

NCI-H2023 = system: NCI-H2023
Outline: as §1

COR-L 105 = system: COR-L 105
Outline: as §1

LCLC-103H = system: LCLC-103H
Outline: as §1

NCI-H358 = system: NCI-H358
Outline: as §1

NCI-H1437 = system: NCI-H1437
Outline: as §1

HCC-44 = system: HCC-44
Outline: as §1

Structure (SMILES): O=c1[nH]c2ccccc2n1C1CCN(CCCC(c2ccc(F)cc2)c2ccc(F)cc2)CC1 [Pimozide] + C[C@]1(O)C[C@@H](c2nc(-c3ccc4ccc(-c5ccccc5)nc4c3)c3c(N)nccn32)C1 [Linsitinib] (partner 1 µM)
- relative viability (NCI-H727; first compound 0.08 µM): 0.285
- relative viability (NCI-H727; first compound 0.253 µM): 0.337
- relative viability (NCI-H727; first compound 0.8 µM): 0.307
- relative viability (NCI-H727; first compound 2.53 µM): 0.281
- relative viability (NCI-H727; first compound 8 µM): 0.526
- relative viability (HCC-827; first compound 0.253 µM): 0.986
- relative viability (HCC-827; first compound 0.8 µM): 0.915
- relative viability (HCC-827; first compound 2.53 µM): 0.944
- relative viability (HCC-827; first compound 8 µM): 0.939
- relative viability (NCI-H2085; first compound 0.08 µM): 0.916
- relative viability (NCI-H2085; first compound 0.253 µM): 0.934
- relative viability (NCI-H2085; first compound 0.8 µM): 0.818
- relative viability (NCI-H2085; first compound 2.53 µM): 0.942
- relative viability (NCI-H2085; first compound 8 µM): 0.762
- relative viability (HCC-366; first compound 0.08 µM): 0.747
- relative viability (HCC-366; first compound 0.253 µM): 0.67
- relative viability (HCC-366; first compound 0.8 µM): 0.7
- relative viability (HCC-366; first compound 2.53 µM): 0.754
- relative viability (HCC-366; first compound 8 µM): 0.677
- relative viability (HCC-78; first compound 0.08 µM): 0.531
- relative viability (HCC-78; first compound 0.253 µM): 0.469
- relative viability (HCC-78; first compound 0.8 µM): 0.549
- relative viability (HCC-78; first compound 2.53 µM): 0.46
- relative viability (HCC-78; first compound 8 µM): 0.536
- relative viability (SK-LU-1; first compound 0.08 µM): 1.11
- relative viability (SK-LU-1; first compound 0.253 µM): 1.12
- relative viability (SK-LU-1; first compound 0.8 µM): 0.902
- relative viability (SK-LU-1; first compound 2.53 µM): 0.732
- relative viability (SK-LU-1; first compound 8 µM): 0.851
- relative viability (NCI-H1395; first compound 0.08 µM): 1.12
- relative viability (NCI-H1395; first compound 0.253 µM): 1.07
- relative viability (NCI-H1395; first compound 0.8 µM): 1.07
- relative viability (NCI-H1395; first compound 2.53 µM): 1.35
- relative viability (NCI-H1395; first compound 8 µM): 1.09
- relative viability (EPLC-272H; first compound 0.08 µM): 0.913
- relative viability (EPLC-272H; first compound 0.253 µM): 1.15
- relative viability (EPLC-272H; first compound 0.8 µM): 1.21
- relative viability (EPLC-272H; first compound 2.53 µM): 1.17
- relative viability (EPLC-272H; first compound 8 µM): 1.09
- relative viability (NCI-H1975; first compound 0.08 µM): 0.95
- relative viability (NCI-H1975; first compound 0.253 µM): 1.04
- relative viability (NCI-H1975; first compound 0.8 µM): 0.964
- relative viability (NCI-H1975; first compound 2.53 µM): 0.926
- relative viability (NCI-H1975; first compound 8 µM): 0.741
- relative viability (UMC-11; first compound 0.08 µM): 1.02
- relative viability (UMC-11; first compound 0.253 µM): 0.977
- relative viability (UMC-11; first compound 0.8 µM): 1.05
- relative viability (UMC-11; first compound 2.53 µM): 1.07
- relative viability (UMC-11; first compound 8 µM): 1.09
- relative viability (HCC-15; first compound 0.08 µM): 0.91
- relative viability (HCC-15; first compound 0.253 µM): 0.911
- relative viability (HCC-15; first compound 0.8 µM): 0.847
- relative viability (HCC-15; first compound 2.53 µM): 0.744
- relative viability (HCC-15; first compound 8 µM): 0.796
- relative viability (NCI-H1792; first compound 0.08 µM): 0.524
- relative viability (NCI-H1792; first compound 0.253 µM): 0.495
- relative viability (NCI-H1792; first compound 0.8 µM): 0.417
- relative viability (NCI-H1792; first compound 2.53 µM): 0.444
- relative viability (NCI-H1792; first compound 8 µM): 0.571
- relative viability (NCI-H661; first compound 0.08 µM): 0.659
- relative viability (NCI-H661; first compound 0.253 µM): 0.422
- relative viability (NCI-H661; first compound 0.8 µM): 0.557
- relative viability (NCI-H661; first compound 2.53 µM): 0.513
- relative viability (NCI-H661; first compound 8 µM): 0.536
- relative viability (NCI-H2405; first compound 0.08 µM): 0.888
- relative viability (NCI-H2405; first compound 0.253 µM): 0.771
- relative viability (NCI-H2405; first compound 0.8 µM): 0.876
- relative viability (NCI-H2405; first compound 2.53 µM): 0.814
- relative viability (NCI-H2405; first compound 8 µM): 0.7
- relative viability (NCI-H1944; first compound 0.08 µM): 1.02
- relative viability (NCI-H1944; first compound 0.253 µM): 1.07
- relative viability (NCI-H1944; first compound 0.8 µM): 1.05
- relative viability (NCI-H1944; first compound 2.53 µM): 1.3
- relative viability (NCI-H1944; first compound 8 µM): 1.22
- relative viability (COR-L23; first compound 0.08 µM): 0.956
- relative viability (COR-L23; first compound 0.253 µM): 0.76
- relative viability (COR-L23; first compound 0.8 µM): 0.832
- relative viability (COR-L23; first compound 2.53 µM): 0.887
- relative viability (COR-L23; first compound 8 µM): 0.84
- relative viability (HARA; first compound 0.08 µM): 0.944
- relative viability (HARA; first compound 0.253 µM): 0.981
- relative viability (HARA; first compound 0.8 µM): 0.823
- relative viability (HARA; first compound 2.53 µM): 0.92
- relative viability (HARA; first compound 8 µM): 0.748
- relative viability (NCI-H2023; first compound 0.08 µM): 0.613
- relative viability (NCI-H2023; first compound 0.253 µM): 0.654
- relative viability (NCI-H2023; first compound 0.8 µM): 0.61
- relative viability (NCI-H2023; first compound 2.53 µM): 0.667
- relative viability (NCI-H2023; first compound 8 µM): 0.443
- relative viability (COR-L 105; first compound 0.253 µM): 1.01
- relative viability (COR-L 105; first compound 0.8 µM): 0.795
- relative viability (COR-L 105; first compound 2.53 µM): 0.844
- relative viability (COR-L 105; first compound 8 µM): 0.562
- relative viability (LCLC-103H; first compound 0.08 µM): 1.01
- relative viability (LCLC-103H; first compound 0.253 µM): 1.02
- relative viability (LCLC-103H; first compound 0.8 µM): 1
- relative viability (LCLC-103H; first compound 2.53 µM): 1.07
- relative viability (LCLC-103H; first compound 8 µM): 1.38
- relative viability (NCI-H358; first compound 0.08 µM): 0.739
- relative viability (NCI-H358; first compound 0.253 µM): 0.852
- relative viability (NCI-H358; first compound 0.8 µM): 0.649
- relative viability (NCI-H358; first compound 2.53 µM): 0.643
- relative viability (NCI-H358; first compound 8 µM): 0.693
- relative viability (NCI-H1437; first compound 0.08 µM): 1.09
- relative viability (NCI-H1437; first compound 0.253 µM): 1.11
- relative viability (NCI-H1437; first compound 0.8 µM): 0.932
- relative viability (NCI-H1437; first compound 2.53 µM): 0.899
- relative viability (NCI-H1437; first compound 8 µM): 0.893
- relative viability (HCC-44; first compound 0.08 µM): 0.635
- relative viability (HCC-44; first compound 0.253 µM): 0.703
- relative viability (HCC-44; first compound 0.8 µM): 0.64
- relative viability (HCC-44; first compound 2.53 µM): 0.653
- relative viability (HCC-44; first compound 8 µM): 0.685
